Experimental data taken from ChEMBL document CHEMBL4177573 (Bioorg Med Chem, 2017).
pEC50, pIC50: −log10 of the molar value. Square brackets hold non-standard residues; d marks the D form. Peptide text beside a SMILES is read from it. 4Pal = N[C@@H](Cc1ccncc1)C(=O)O; Cha = N[C@@H](CC1CCCCC1)C(=O)O; Aib = CC(C)(N)C(=O)O

Key:
[1] = target: T1, Neuropeptide Y receptor type 2 (Homo sapiens, UniProt P49146); test: Displacement of [125I]-PYY from human neuropeptide Y2 receptor expressed in CHO cell membranes incubated for 60 mins by TopCount based method
T1 sequence (P49146 whole entry): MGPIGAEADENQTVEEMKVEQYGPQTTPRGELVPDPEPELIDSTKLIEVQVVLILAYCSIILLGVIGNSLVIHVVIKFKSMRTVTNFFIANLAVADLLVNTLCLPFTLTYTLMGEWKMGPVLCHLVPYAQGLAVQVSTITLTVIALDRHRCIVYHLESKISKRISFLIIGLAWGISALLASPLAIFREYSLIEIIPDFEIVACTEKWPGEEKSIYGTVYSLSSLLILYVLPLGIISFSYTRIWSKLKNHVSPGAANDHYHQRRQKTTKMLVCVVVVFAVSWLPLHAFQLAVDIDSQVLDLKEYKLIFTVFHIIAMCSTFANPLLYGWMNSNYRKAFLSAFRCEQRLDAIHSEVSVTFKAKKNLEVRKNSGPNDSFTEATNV

[2] = target: T1, Neuropeptide Y receptor type 2; test: Agonist activity at human neuropeptide Y2 receptor expressed in CHO cell membranes assessed as stimulation of [35S]GTPgammaS binding incubated for 120 mins by liquid scintillation counting method; type: functional
Mus musculus [3] = test: Anorectic activity in C57BL/6J mouse assessed as inhibition of food intake at 0.03 mg/kg/day, sc for 3 days dosed as continuous administration by infusion using osmotic pump; type: functional; settings: 72 h
Mus musculus [4] = test: Anorectic activity in C57BL/6J mouse assessed as inhibition of food intake at 0.3 mg/kg/day, sc dosed as […] and measured after 12 hrs; type: functional
Mus musculus [5] = test: Anorectic activity in C57BL/6J mouse assessed as inhibition of food intake at 0.3 mg/kg/day, sc dosed as […] and measured after 24 hrs; type: functional
Mus musculus [6] = test: Anorectic activity in C57BL/6J mouse assessed as inhibition of food intake at 0.1 mg/kg/day, sc for 3 days dosed as continuous administration by infusion using osmotic pump; type: functional; settings: 72 h

pIC50 [1] | pEC50 [2] | Structure (SMILES) | inhibition in vivo at 0.03 mg/kg/day (Mus musculus [3]) [%] | inhibition in vivo at 0.3 mg/kg/day (Mus musculus [4]) [%] | inhibition in vivo at 0.3 mg/kg/day (Mus musculus [5]) [%] | inhibition in vivo at 0.1 mg/kg/day (Mus musculus [6]) [%]
8.74 | 9.46 | CC[C@](C)(NC(=O)[C@H](CO)NC(C)=O)C(=O)N[C@@H](CCCNC(=N)N)C(=O)N[C@@H](Cc1cnc[nH]1)C(=O)N[C@@H](CC1CCCCC1)C(=O)N[C@@H](CC1CCCCC1)C(=O)N[C@@H](CC(N)=O)C(=O)N[C@@H](CC(C)C)C(=O)NC(C)(C)C(=O)N[C@H](C(=O)N[C@@H](CCCNC(=N)N)C(=O)N[C@@H](CCC(N)=O)C(=O)N[C@@H](CCCNC(=N)N)C(=O)N[C@@H](CC1CCCCC1)C(N)=O)[C@@H](C)O | – | – | – | –
8.62 | 9.55 | CC[C@@](C)(NC(=O)[C@H](CO)NC(C)=O)C(=O)N[C@@H](CCCNC(=N)N)C(=O)N[C@@H](Cc1cnc[nH]1)C(=O)N[C@@H](CC1CCCCC1)C(=O)N[C@@H](CC1CCCCC1)C(=O)N[C@@H](CC(N)=O)C(=O)N[C@@H](CC(C)C)C(=O)NC(C)(C)C(=O)N[C@H](C(=O)N[C@@H](CCCNC(=N)N)C(=O)N[C@@H](CCC(N)=O)C(=O)N[C@@H](CCCNC(=N)N)C(=O)N[C@@H](CC1CCCCC1)C(N)=O)[C@@H](C)O | – | – | – | –
9.04 | 9.77 | CC[C@](C)(NC(=O)[C@H]1C[C@H](O)CN1C(=O)[C@H](CO)NC(=O)c1c[nH]cn1)C(=O)N[C@@H](Cc1ccncc1)C(=O)N[C@@H](CC1CCCCC1)C(=O)NC(C)(C)C(=O)N[C@@H](CC(N)=O)C(=O)N[C@@H](CCCCN)C(=O)NC(C)(C)C(=O)N[C@H](C(=O)N[C@@H](CCCNC(=N)N)C(=O)N[C@@H](CCC(N)=O)C(=O)N[C@@H](CCCNC(=N)N)C(=O)N[C@@H](CC1CCCCC1)C(N)=O)[C@@H](C)O | – | – | – | –
9.36 | 9.89 | CC[C@](C)(NC(=O)[C@H](CC1CCCCC1)NC(=O)[C@H](Cc1ccncc1)NC(=O)[C@](C)(CC)NC(=O)[C@H]1C[C@H](O)CN1C(=O)[C@H](CO)NC(=O)c1c[nH]cn1)C(=O)N[C@@H](CC(N)=O)C(=O)N[C@@H](CCCCN)C(=O)NC(C)(C)C(=O)N[C@H](C(=O)N[C@@H](CCCNC(=N)N)C(=O)N[C@@H](CCC(N)=O)C(=O)N[C@@H](CCCNC(=N)N)C(=O)N[C@@H](CC1CCCCC1)C(N)=O)[C@@H](C)O | 49 | – | – | –
9.24 | 9.89 | CC[C@](C)(NC(=O)[C@H]1C[C@H](O)CN1C(=O)[C@H](CO)NC(C)=O)C(=O)N[C@@H](Cc1ccncc1)C(=O)N[C@@H](CC1CCCCC1)C(=O)N[C@@H](CC(C)(C)C)C(=O)N[C@@H](CC(N)=O)C(=O)N[C@@H](CCCCN)C(=O)NC(C)(C)C(=O)N[C@H](C(=O)N[C@@H](CCCNC(=N)N)C(=O)N[C@@H](CCC(N)=O)C(=O)N[C@@H](CCCNC(=N)N)C(=O)N[C@@H](CC1CCCCC1)C(N)=O)[C@@H](C)O | 27 | 4 | 8 | –
8.48 | 9.30 | CC[C@@](C)(NC(=O)[C@H](CC1CCCCC1)NC(=O)[C@H](Cc1cnc[nH]1)NC(=O)[C@H](CCCNC(=N)N)NC(=O)[C@H]1CCCN1C(=O)[C@H](CO)NC(C)=O)C(=O)N[C@@H](CC(N)=O)C(=O)N[C@@H](CC(C)C)C(=O)NC(C)(C)C(=O)N[C@H](C(=O)N[C@@H](CCCNC(=N)N)C(=O)N[C@@H](CCC(N)=O)C(=O)N[C@@H](CCCNC(=N)N)C(=O)N[C@@H](CC1CCCCC1)C(N)=O)[C@@H](C)O | – | – | – | –
9.24 | 9.80 | CC[C@](C)(NC(=O)[C@H](CC1CCCCC1)NC(=O)[C@H](Cc1ccncc1)NC(=O)[C@](C)(CC)NC(=O)[C@H]1CCCN1C(=O)[C@H](CO)NC(C)=O)C(=O)N[C@@H](CC(N)=O)C(=O)N[C@@H](CCCCN)C(=O)NC(C)(C)C(=O)N[C@H](C(=O)N[C@@H](CCCNC(=N)N)C(=O)N[C@@H](CCC(N)=O)C(=O)N[C@@H](CCCNC(=N)N)C(=O)N[C@@H](CC1CCCCC1)C(N)=O)[C@@H](C)O | 36 | 23 | 16 | –
9.39 | 9.89 | CC(=O)N[C@@H](CO)C(=O)NC(C)(C)C(=O)N[C@@H](CCCNC(=N)N)C(=O)N[C@@H](Cc1ccncc1)C(=O)N[C@@H](CC1CCCCC1)C(=O)NC(C)(C)C(=O)N[C@@H](CC(N)=O)C(=O)N[C@@H](CCCCN)C(=O)NC(C)(C)C(=O)N[C@H](C(=O)N[C@@H](CCCNC(=N)N)C(=O)N[C@@H](CCC(N)=O)C(=O)N[C@@H](CCCNC(=N)N)C(=O)N[C@@H](CC1CCCCC1)C(N)=O)[C@@H](C)O (Ac-S[Aib]R[4Pal][Cha][Aib]NK[Aib]TRQR[Cha]-NH2) | 36 | – | – | 95
9.11 | 9.68 | CC[C@](C)(NC(=O)[C@H]1C[C@H](O)CN1C(=O)[C@H](CO)NC(C)=O)C(=O)N[C@@H](Cc1ccncc1)C(=O)N[C@@H](CC1CCCCC1)C(=O)NC(C)(C)C(=O)N[C@@H](CC(N)=O)C(=O)N[C@@H](CCCCN)C(=O)NC(C)(C)C(=O)N[C@H](C(=O)N[C@@H](CCCNC(=N)N)C(=O)N[C@@H](CCC(N)=O)C(=O)N[C@@H](CCCNC(=N)N)C(=O)N[C@@H](CC1CCCCC1)C(N)=O)[C@@H](C)O | 45 | – | – | –
9.52 | 9.96 | CC[C@@](C)(NC(=O)[C@H](CO)NC(C)=O)C(=O)N[C@@H](CCCNC(=N)N)C(=O)N[C@@H](Cc1ccncc1)C(=O)N[C@@H](CC1CCCCC1)C(=O)NC(C)(C)C(=O)N[C@@H](CC(N)=O)C(=O)N[C@@H](CCCCN)C(=O)NC(C)(C)C(=O)N[C@H](C(=O)N[C@@H](CCCNC(=N)N)C(=O)N[C@@H](CCC(N)=O)C(=O)N[C@@H](CCCNC(=N)N)C(=O)N[C@@H](CC1CCCCC1)C(N)=O)[C@@H](C)O | 25 | – | – | 64
8.43 | 9.39 | CC[C@](C)(NC(=O)[C@H](CC(C)C)NC(=O)[C@H](CC(N)=O)NC(=O)[C@H](CC1CCCCC1)NC(=O)[C@H](CC1CCCCC1)NC(=O)[C@H](Cc1cnc[nH]1)NC(=O)[C@H](CCCNC(=N)N)NC(=O)[C@H]1CCCN1C(=O)[C@H](CO)NC(C)=O)C(=O)N[C@H](C(=O)N[C@@H](CCCNC(=N)N)C(=O)N[C@@H](CCC(N)=O)C(=O)N[C@@H](CCCNC(=N)N)C(=O)N[C@@H](CC1CCCCC1)C(N)=O)[C@@H](C)O | – | – | – | –
8.92 | 9.23 | CC(C)C[C@H](NC(=O)[C@H](CC(N)=O)NC(=O)[C@H](CC1CCCCC1)NC(=O)[C@H](CC1CCCCC1)NC(=O)[C@H](Cc1cnc[nH]1)NC(=O)[C@H](CCCNC(=N)N)NC(=O)[C@H]1CCCN1C(=O)[C@H](CO)NC(=O)CO)C(=O)NC(C)(C)C(=O)N[C@H](C(=O)N[C@@H](CCCNC(=N)N)C(=O)N[C@@H](CCC(N)=O)C(=O)N[C@@H](CCCNC(=N)N)C(=O)N[C@@H](CC1CCCCC1)C(N)=O)[C@@H](C)O | – | – | – | –
9.35 | 9.74 | CC[C@](C)(NC(=O)[C@H](CC1CCCCC1)NC(=O)[C@H](Cc1cnc[nH]1)NC(=O)[C@H](CCCNC(=N)N)NC(=O)[C@H]1CCCN1C(=O)[C@H](CO)NC(C)=O)C(=O)N[C@@H](CC(N)=O)C(=O)N[C@@H](CC(C)C)C(=O)NC(C)(C)C(=O)N[C@H](C(=O)N[C@@H](CCCNC(=N)N)C(=O)N[C@@H](CCC(N)=O)C(=O)N[C@@H](CCCNC(=N)N)C(=O)N[C@@H](CC1CCCCC1)C(N)=O)[C@@H](C)O | – | – | – | –
9.29 | 9.74 | CC(C)C[C@H](NC(=O)[C@H](CC(N)=O)NC(=O)[C@H](CC1CCCCC1)NC(=O)[C@H](CC1CCCCC1)NC(=O)[C@H](Cc1cnc[nH]1)NC(=O)[C@H](CCCNC(=N)N)NC(=O)[C@H]1CCCN1C(=O)[C@H](CO)NC(=O)c1c[nH]cn1)C(=O)NC(C)(C)C(=O)N[C@H](C(=O)N[C@@H](CCCNC(=N)N)C(=O)N[C@@H](CCC(N)=O)C(=O)N[C@@H](CCCNC(=N)N)C(=O)N[C@@H](CC1CCCCC1)C(N)=O)[C@@H](C)O | – | – | – | –
8.35 | 9.68 | CC(=O)N[C@@H](CO)C(=O)N1CCC[C@@H]1C(=O)NC(C)(C)C(=O)N[C@@H](Cc1ccncc1)C(=O)N[C@@H](CC1CCCCC1)C(=O)NC(C)(C)C(=O)N[C@@H](CC(N)=O)C(=O)N[C@@H](CCCCN)C(=O)NC(C)(C)C(=O)N[C@H](C(=O)N[C@@H](CCCNC(=N)N)C(=O)N[C@@H](CCC(N)=O)C(=O)N[C@@H](CCCNC(=N)N)C(=O)N[C@@H](CC1CCCCC1)C(N)=O)[C@@H](C)O | – | – | – | 50
9.40 | 9.70 | CC[C@](C)(NC(=O)[C@H]1CCCN1C(=O)[C@H](CO)NC(C)=O)C(=O)N[C@@H](Cc1ccncc1)C(=O)N[C@@H](CC1CCCCC1)C(=O)N[C@@H](CC(C)(C)C)C(=O)N[C@@H](CC(N)=O)C(=O)N[C@@H](CCCCN)C(=O)NC(C)(C)C(=O)N[C@H](C(=O)N[C@@H](CCCNC(=N)N)C(=O)N[C@@H](CCC(N)=O)C(=O)N[C@@H](CCCNC(=N)N)C(=O)N[C@@H](CC1CCCCC1)C(N)=O)[C@@H](C)O | 52 | 12 | 1 | –
9.17 | 9.77 | CC[C@@](C)(NC(=O)[C@H](CC(C)C)NC(=O)[C@H](CC(N)=O)NC(=O)[C@H](CC1CCCCC1)NC(=O)[C@H](CC1CCCCC1)NC(=O)[C@H](Cc1cnc[nH]1)NC(=O)[C@H](CCCNC(=N)N)NC(=O)[C@H]1CCCN1C(=O)[C@H](CO)NC(C)=O)C(=O)N[C@H](C(=O)N[C@@H](CCCNC(=N)N)C(=O)N[C@@H](CCC(N)=O)C(=O)N[C@@H](CCCNC(=N)N)C(=O)N[C@@H](CC1CCCCC1)C(N)=O)[C@@H](C)O | – | – | – | –
